This note sets out measurements from US20250304542A1, “Fused Heterobicyclic Antiviral Agents” (Enanta Pharmaceuticals, Inc., priority 2024, published 2025).

Each structure is given as a SMILES string. Some results are limits rather than exact numbers.

One test has as its system HBV. In words: HBV Infection in HepG2-NTCP Cells (HBeAg AlphaLISA). It counts as cell-based. Conditions: Hepatitis B virus, 192 h, read-out: Cellular EC50 (μM). Here is the method:
HepG2-NTCP A3 cells were maintained in DMEM media supplemented with GlutaMAX™, 10% fetal bovine serum, 1% penicillin/streptomycin, and 5 μg/mL puromycin at 37° C. in a humidified atmosphere with 5% CO2 in a collagen-coated tissue culture flask.
HepG2-NTCP cells were seeded in 384 well plate containing 16,000 cells/well two days prior to the infection. On the day of infection, compounds were 3-fold serially diluted in DMSO and pre-incubated with HepG2-NTCP cells for two hours before purified HBV addition. HBV infection was carried out at 2000 GE/cell with 4% PEG, and the final concentration of DMSO is 0.5%. On day one post infection, HBV-containing media was aspirated, cells were washed once with PBS and then maintained in 2.5% DMSO containing media for the remainder of the assay.
Supernatants from infected HepG2-NTCP cells were collected at day 8 post infection, and the amount of viral antigen HBeAg was measured by HBeAg AlphaLISA detection kit (PerkinElmer) following the manufacturer's recommended protocol. Irrespective of readout, compound concentrations that reduce viral product accumulation in supernatants by 50% relative to DMSO controls (EC50) are reported. EC50 ranges are as follows: A<0.1 μM; B 0.1-1 μM; C>1 μM. A dash (-) indicates the compound was not tested.

Another test addresses T1, NTCP (Homo sapiens, UniProt Q14973).
T1 construct: expressed in transfected cells; host or cells: HepG2-NTCP (A3 clone, kept under puromycin)
T1 sequence (Q14973 1-349): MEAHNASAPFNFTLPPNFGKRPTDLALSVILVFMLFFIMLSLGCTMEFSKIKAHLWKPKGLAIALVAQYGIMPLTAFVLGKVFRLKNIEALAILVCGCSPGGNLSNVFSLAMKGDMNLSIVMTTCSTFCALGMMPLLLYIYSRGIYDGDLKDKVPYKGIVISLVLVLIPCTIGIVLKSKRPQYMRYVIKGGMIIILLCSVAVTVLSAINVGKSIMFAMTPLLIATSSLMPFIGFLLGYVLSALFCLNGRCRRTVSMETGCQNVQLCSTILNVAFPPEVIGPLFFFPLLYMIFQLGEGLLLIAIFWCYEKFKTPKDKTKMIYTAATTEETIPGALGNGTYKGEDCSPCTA
The test can be described thus: HepG2-NTCP preS1 Binding Competition Assay. To be noted: HepG2-NTCP cells pre-treated 2 hours, FITC-labeled myristoylated preS1 peptide co-incubated 30 minutes, cell-surface fluorescence; read-out: Cellular EC50. As for the experimental part: Myristoylated preS1 peptide (2-48 aa) conjugated to a C-terminal FITC tag was synthesized to evaluate preS1 binding to NTCP-expressing cells. HepG2-NTCP cells seeded in 384-wells were pre-treated with compounds for 2 hours prior to the addition of FITC-labeled preS1 peptide. After co-incubation for 30 minutes, unbound FITC-preS1 peptide was washed twice with PBS, and the fluorescence of preS1-FITC bound to cell surface was detected by Envision plate reader. EC50 ranges are as follows: A<0.1 μM; B 0.1-1 μM; C>1 μM. A dash (-) indicates the compound was not tested.

Take `CC(C)COC(=O)N[C@@H](CCc1cc2c(cc1Cl)N(c1ccccc1)C[C@@H](C1CCCCC1)N(C)S2(=O)=O)C(=O)O` [Example 14, (S)-4-((R)-7-chloro-3-cyclohexyl-2-methyl-1,1-dioxido-5-phenyl-2,3,4,5-tetrahydrobenzo[f][1,2,5]thiadiazepin-8-yl)-2-((isobutoxycarbonyl)amino)butanoic acid]: the figures for the EC50 in the test with HBV and at NTCP were under 0.1 µM and 100 to 1000 nM, respectively.

On to `CC(C)COC(=O)N[C@H](CCc1cc2c(cc1Cl)N(c1ccccc1)C[C@@H](C1CCCCC1)N(C)S2(=O)=O)C(=O)O` [Example 15], for which the figures for the EC50 in the test on HBV and on NTCP were under 0.1 µM and 100 to 1000 nM, respectively.

As for `CCCCCOC(=O)N[C@@H](CCc1cc2c(cc1Cl)N(c1ccccc1)C[C@@H](C1CCCCC1)N(C)S2(=O)=O)C(=O)O` [Example 16], the EC50 – broadly, the concentration giving half of the maximal effect – in the test on HBV fell in the range of 0.1 to 1 µM; at NTCP, 100 to 1000 nM.

`CN1[C@H](C2CCCCC2)CN(c2ccccc2)c2cc(Cl)c(CC[C@H](NC(=O)OCc3ccccc3)C(=O)O)cc2S1(=O)=O` [Example 22]: the concentration giving a half-maximal response (EC50) in the test on HBV is 0.1 to 1 µM; at NTCP it was 100 to 1000 nM.

For `CC(C)CS(=O)(=O)N[C@H](CCc1cc2c(cc1Cl)N(c1ccccc1)C[C@@H](C1CCCCC1)N(C)S2(=O)=O)C(=O)O` [Example 29], the EC50 is 0.1 to 1 µM in the test with HBV and under 100 nM on NTCP.

Turning to `CCCCN(C)C(=O)C(=O)N[C@@H](CCc1cc2c(cc1Cl)N(c1ccccc1)C[C@@H](C1CCCCC1)N(C)S2(=O)=O)C(=O)O` [Example 32, (S)-2-(2-(butyl(methyl)amino)-2-oxoacetamido)-4-((R)-7-chloro-3-cyclohexyl-2-methyl-1,1-dioxido-5-phenyl-2,3,4,5-tetrahydrobenzo[f][1,2,5]thiadiazepin-8-yl)butanoic acid], the EC50 with HBV was under 0.1 µM; at NTCP, under 100 nM.

Consider `CCCCN(C)C(=O)C(=O)N[C@H](CCc1cc2c(cc1Cl)N(c1ccccc1)C[C@@H](C1CCCCC1)N(C)S2(=O)=O)C(=O)O` [Example 33], for which the EC50 in the test on HBV lay in the range of 0.1 to 1 µM; on NTCP it was 100 to 1000 nM.

As to `CCCCNC(=O)C(=O)N[C@@H](CCc1cc2c(cc1Cl)N(c1ccccc1)C[C@@H](C1CCCCC1)N(C)S2(=O)=O)C(=O)O` [Example 34], the EC50 was under 0.1 µM with HBV and under 100 nM on NTCP.

Consider `CNc1cc2c(cc1C(=O)N[C@H](C(=O)O)c1ccc(C(F)(F)F)cc1)S(=O)(=O)N(C)[C@H](C1CCCCC1)CN2c1ccccc1` [Example 39, (S)-2-((R)-3-cyclohexyl-2-methyl-7-(methylamino)-1,1-dioxido-5-phenyl-2,3,4,5-tetrahydrobenzo[f][1,2,5]thiadiazepine-8-carboxamido)-2-(4-(trifluoromethyl)phenyl)acetic acid], for which the EC50 was under 0.1 µM with HBV and under 100 nM at NTCP.

With `CNc1cc2c(cc1C(=O)N[C@H](C(=O)O)c1ccsc1)S(=O)(=O)N(C)[C@H](C1CCCCC1)CN2c1ccccc1` [Example 40], the EC50 was 0.1 to 1 µM with HBV and under 100 nM on NTCP.

With `CNc1cc2c(cc1C(=O)N[C@H](C(=O)O)C1CCCCC1)S(=O)(=O)N(C)[C@H](C1CCCCC1)CN2c1ccccc1` [Example 41], the results for the half-maximal effective concentration (EC50) in the test with HBV and at NTCP were under 0.1 µM and under 100 nM, respectively.

As for `CNc1cc2c(cc1C(=O)N[C@H](C(=O)O)c1cccc(Cl)c1)S(=O)(=O)N(C)[C@H](C1CCCCC1)CN2c1ccccc1` [Example 45], the EC50 with HBV was under 0.1 µM; at NTCP, under 100 nM.
